In patent US20140079836A1, “METHODS AND COMPOSITIONS FOR ALTERING HEALTH, WELLBEING, AND LIFESPAN” (LifeSpan Extension, LLC, priority 2008, published 2014):

Legend:
custom array genes = experiment: Chlorogenic acid challenge, custom RT-PCR microarray, dermal fibroblasts ag07999; format: cell-based, human; conditions: 24 hours
Experimental: Human dermal fibroblasts (ag07999) were seeded at near confluency in 6-well dishes in 4 ml MEM, 10% FBS/well. 24 hours after seeding, wells were aspirated and 3 ml chlorogenic acid dilution in MEM, 1% FBS added, or MEM, 1% FBS only for control wells. Chlorogenic acid (Acros Organics, Geel, Belgium) dilutions used were: 0.005%, 0.0005%, 0.00005%, 0.000005% and 0.0000005%. 24 hours after chlorogenic acid challenge, wells were aspirated, 1 ml trypsin-EDTA added to each well, swirled and aspirated. Trypsin-EDTA was again added to each well and cells retrieved with MEM 10% FBS when released from the substratum and centrifuged to a pellet.
RNA was collected from the harvested cells according to protocol using RT2 qPCR-Grade RNA Isolation Kit from SABiosciences Co. The RNA was then used to create cDNA (using a First Strand Synthesis Kit, SABiosciences, and following the manufacturer's instructions) and run on the BioRad iCycler RT-PCR machine using Custom RT-PCR Microarray (CAPH09464A, SABiosciences) (Array 1) and SYBR Green Reaction Mix (SABiosciences). Data from Example 16 are shown in FIG. 19; additional results are described and analyzed below.

[1] = tested on: genes involved in longevity (Array 1); experiment: Custom RT-PCR microarray (Array 1) gene expression in skin fibroblasts, UVB/UVA1; format: cell-based, human; conditions: donor three IDE + UVB vs. Green tea + UVB Continuous Incubation; for PPC gene expression fold change / RTC gene expression fold change: control well
Experimental: Seeding of cells: On Day 1, each cell culture was seeded into 6 well cluster dishes at ˜1.5×10^5 cells in 4 mls medium per well. Three wells were seeded per test condition or control.
Experimental phase: On Day 3, wells were washed 1× with 2 mls medium, fed back 2 mls medium without fetal bovine serum and preincubated for 30-60 minutes before challenge with test or control conditions. After the preincubation, medium was aspirated from the wells and 2.5 mls of test or control condition in medium with 1% fetal bovine serum was pipetted into the appropriate wells.
(3) UVA1, UVB exposed and unexposed cells without test condition were used as controls. The experimental phase ended at 24 hours post UV exposure. Cells from each test and control parameter were then prepped for RNA isolation as described below.
UVB/UVA1 exposure: Cells exposed to UV received 200 mJ/cm^2 UVB/1 MED UVA1 using Thermo Oriel solar simulator model SP66923-3056. Cells were exposed from the bottom of the culture dish. The UV dose delivered to the cells was adjusted for interference from the plastic in the culture dish.
Preparation of RNA: The RNA was isolated using the Qiagen RNEasy Plus Mini Kit according to the manufacturer's protocol which can be found on the World Wilde Web at qiagen.com/literature/Defaultaspx?Term=&Language=EN&LiteratureType=4& ProductCategory=10162. The RNA was quantified and examined for purity using the 260/280 nm read method in a μ Quant spectrophotometer before use in the array.
Creation and Performance of a Custom Microarray (“Array 1”): Through the Custom Array design service of Superarray Bioscience Corporation, a 96 well RT-PCR microarray (“Array 1”) was developed to illustrate genetic responses in cells treated as above for specific genes involved in longevity as well as the relevant quality controls. The array was performed in compliance with manufacturer's guidelines and by recommended manufacturer's protocol as can be found on the World Wilde Web at superarray.com/Manual/perarrayplate.pdf
(§1) Custom Microarray Results: The results from the microarrays were determined using the delta CT method which uses comparisons of control genes and threshold cycles of genes of interest to generate relative expression values. The full set of experimental conditions was cross referenced and the data is provided herewith in DATA TABLE 3.
Preparation of RNA: The RNA was isolated using the Qiagen RNEasy Plus Mini Kit according to the manufacturer's protocol which can be found on the World Wide Web at qiagen.com/literature/Default. aspx?Term=&Language=EN&LiteratureType=4&ProductCategory=10162.
The RNA was quantified and examined for purity using the 260/280 nm read method in a μ Quant spectrophotometer before use in the array.
Creation and Performance of the Custom Microarray: Through the Custom Array design service of Superarray Bioscience Corporation, a 96 well RT-PCR Microarray was developed to illustrate genetic responses in cells treated as above for specific genes involved in longevity as well as the relevant quality controls. The array was performed in compliance with manufacturer's guidelines and by recommended manufacturer's protocol as can be found on the World Wide Web at superarray.com/Manual/perarrayplate.pdf.
as §1, with “4.” for “3.”
as §1, with “5. […]” for “3.”

O=C(/C=C/c1ccc(O)c(O)c1)O[C@@H]1C[C@](O)(C(=O)O)C[C@@H](O)[C@H]1O [chlorogenic acid, -[[3-(3,4-Dihydroxyphenyl)-1-oxo-2-propenyl]oxy]-1,4,5-trihydroxycyclohexanecarboxylic acid]
IFI44 relative expression (custom array genes; FIG. 17): may significantly decrease expression
expression of genes in the mitochondrial function/biogenesis pathway (custom array genes; FIG. 21a): primarily decreases gene expression
PTGS2 relative expression (custom array genes; at higher concentrations, FIG. 16): significant decrease in PTGS2 gene expression
NOS2A relative expression (custom array genes; increasing concentrations, FIG. 13): biphasic response
SIRT1 relative expression (custom array genes; increasing concentrations, FIG. 14): entirely decreasing expression
CCL4L1 relative expression (custom array genes; middle dosage (0.00005%), FIG. 11): marked repression

COC1=C(OC)C(=O)C(CCCCCCCCCCO)=C(C)C1=O [IDE]
ACE gene expression fold change [1]: −1.13
ACTB gene expression fold change [1]: −2.17
APOE gene expression fold change [1]: 2.43
BAX gene expression fold change [1]: −1.01
BCL2 gene expression fold change [1]: 2.04
CASP2 gene expression fold change [1]: −1.96
CASP9 gene expression fold change [1]: 2.11
CCL4L1 gene expression fold change [1]: 16.91
CLK1 gene expression fold change [1]: 1.02
COX1 gene expression fold change [1]: 1.17
CREBBP gene expression fold change [1]: 1.49
CYP19A1 gene expression fold change [1]: 24.76
DDC gene expression fold change [1]: 58.89
GAPDH gene expression fold change [1]: −2.10
GH1 gene expression fold change [1]: 17.51
HIGX1A gene expression fold change [1]: 40.22
HLA-DRA gene expression fold change [1]: 65.34
HPRT1 gene expression fold change [1]: 1.30
HSPA1A gene expression fold change [1]: −1.54
HSPA1B gene expression fold change [1]: −2.03
HSPA1L gene expression fold change [1]: −1.39
IFI44 gene expression fold change [1]: 1.09
IGF1 gene expression fold change [1]: 4.23
IGF2 gene expression fold change [1]: −1.16
IL1A gene expression fold change [1]: 10.41
IL6 gene expression fold change [1]: −1.25
IL10 gene expression fold change [1]: 3.20
KRAS gene expression fold change [1]: 1.21
MAPK14 gene expression fold change [1]: −1.39
NADSYN1 gene expression fold change [1]: −2.33
NFKB1 gene expression fold change [1]: −1.13
NOS2A gene expression fold change [1]: 40.22
PARP1 gene expression fold change [1]: −2.68
PARP2 gene expression fold change [1]: 22.32
PPARG gene expression fold change [1]: 5.39
PTGS2 gene expression fold change [1]: 3.68
SHC1 gene expression fold change [1]: −1.54
SIRT1 gene expression fold change [1]: 1.39
SOD1 gene expression fold change [1]: −2.03
SOD2 gene expression fold change [1]: −1.13
TEP1 gene expression fold change [1]: 1.06
TERT gene expression fold change [1]: 3.56
TNF gene expression fold change [1]: 16.91
TP53 gene expression fold change [1]: 1.39
PPC gene expression fold change ([1]; entry r305): −1.48
RTC gene expression fold change ([1]; entry r306): 1.09
PPC gene expression fold change ([1]; entry r311): −1.77
RTC gene expression fold change ([1]; entry r312): −3.29
